# In patent publication US20080241077A1, “BENZOYLGUANIDINE SALT AND HYDRATES THEREOF” (priority 2001, published 2008):
# Where a name gives a salt, the structure may show the parent alone.
# What was measured:
# Format in all cases: physicochemical
# [1] = Hygroscopicity of the active substance
# [2] = Solubility in physiologically acceptable solvents
# [3] = Stability of the active substance
compound,measurement,setting,value
"NC(N)=NC(=O)c1ccc(N2CCN(C(=O)c3ccc[nH]3)CC2)c(C(F)(F)F)c1 [formula 1, 4-[4-(2-pyrrolylcarbonyl)-1-piperazinyl]-3-trifluoromethylbenzoylguanidine hydrochloride]",hygroscopicity,[1],not hygroscopic
same,solubility,[2],dissolves readily
same,stability,[3],high degree of stability
